Experimental data reported in patent publication US20210059995A1, “Composition for Protecting Cornea” (Kyoto University, priority 2017, published 2021).

How the values were obtained:
rabbit corneas [1] = assay: Rabbit corneas preserved in Optisol-GS: HE-staining microscopic findings and central corneal thickness; conditions: Optisol-GS at 4° C., 1-4 weeks, KUS121 50 μM, KUS187 20 μM; for swelling of corneal endothelial cells during preservation: control swelled at week 1; for swelling of corneal endothelial cells during preservation / swelling of corneal stroma during preservation: FIG. 6; for swelling of corneal stroma during preservation: control swelled at week 3; for corneal epitheliums and cornea thicknesses versus control group: especially at week 3 or later, FIG. 6, 7
Protocol: (§1) Japanese white rabbits were euthanized, whole eyeballs were excised, and sclerocorneal preparations were prepared by using a razor blade. Each four sclerocorneal preparations were preserved in the following preservation solutions at 4° C. for 4 weeks; (1) Optisol-GS (control), (2) Optisol-GS+KUS121 (50 μM), or (3) Optisol-GS+KUS187 (20 μM). The tissues were sequentially embedded and sectioned.
The tissue sections were stained with HE-staining and observed by microscopy. The images were compared over time among the preservation conditions (FIG. 6). Microscopic images of the sections including the central parts of the corneas were obtained and the central corneal thicknesses were measured and compared over time among the preservation conditions (FIG. 7). In the corneas preserved in Optisol-GS (control), the corneal endothelial cells swelled at week 1 and the corneal stroma swelled at week 3.

rabbit corneas [2] = assay: Rabbit corneas preserved in Optisol-GS: transmission electron microscopy; conditions: corneas preserved for one week in Optisol-GS at 4° C., compound 50 μM, FIG. 13
Protocol: as §1
Corneas preserved for one week were immersed in 0.1 M phosphate buffer containing 2% glutaraldehyde at 4° C. for prefixation, in 0.1 M phosphate buffer at 4° C. overnight for washing, and in 2% aqueous osmium solution at 4° C. for 3 hours for postfixation. For dehydration the corneas were successively immersed in ethanol solutions of high concentrations (50, 70, 90, 100, 100, and 100%) at 4° C. (50%) or a room temperature for 15 minutes. For substitution the corneas were immersed in propylene oxide at a room temperature for 45 minutes and then in a mixture of propylene oxide and epoxy resin at a room temperature for 1.5 hours. For embedding the samples and epoxy resin were put into capsules and cured at 60° C. for 48 hours. Then 80-90 nm sections were prepared by using an ultramicrotome and put on 200 meshes. The sections were stained with 2% uranyl acetate and lead and reinforced by carbon deposition (reinforcement of sections against electron beams). […]

[3] = system: rabbit corneal epithelial cells; assay: Rabbit corneas preserved in Optisol-GS: apoptosis of corneal epithelial cells by TUNEL assay; conditions: Optisol-GS at 4° C., 1-4 weeks; KUS121 50 μM, KUS187 20 μM; FIG. 8-10
Protocol: as §1
The tissue sections were fluorescently stained by TUNEL method and observed by confocal microscopy. Images of the epithelial layers around the centers of the corneas were obtained in three different fields (FIG. 8). […] The total corneal epithelial cells stained with PI and the TUNEL-positive cells were counted and the percentages of the TUNEL-positive cells were calculated. The percentages were compared over time among the preservation conditions (FIG. 10). The TUNEL-positive apoptotic cells were increased in the corneal epithelial cells of the control group after week 1. The apoptosis was suppressed in the KUS121 and KUS187 groups.

[4] = system: rabbit corneal endothelial cells; assay: Intracellular ATP concentration (luciferase assay) in cultured rabbit corneal endothelial cells; assay type: cell-based; conditions: compound 50 μM, FIG. 3
Protocol: (§2) Whole eyeballs of Japanese white rabbits (Funakoshi Corporation) were cut along corneal limbus with a razor blade and the corneas were isolated. The corneal endothelial cells were mechanically scraped off and collected with a crescent knife. Primary cultures were prepared in a DMEM with 10% fetal bovine serum and 2 ng/ml bFGF. The sub-confluent cells were treated with trypsin and collected, then plated on 12-well plates at the equal density of 4×10^4 cells/well and cultured in the same medium for 24 hours. The cells were subsequently cultured in the following eight different conditions: (1) control (the medium+DMSO), (2) the medium+KUS121 (50 μM), (3) the medium+antimycin (20 μM), (4) the medium+antimycin (20 μM)+KUS121 (50 μM), (5) the medium+oligomycin (10 μM), (6) the medium+oligomycin (10 μM)+KUS121 (50 μM), (7) DMEM with 2 ng/ml bFGF (non-glucose); and (8) DMEM with 2 ng/ml bFGF (non-glucose)+KUS121 (50 μM).
The corneal endothelial cells cultured in the presence of the agents (P=1) were washed with PBS(−), treated with trypsin, suspended in the medium (DMEM with 10% fetal bovine serum and 2 ng/ml bFGF), and counted. Then 2.5×10^4 cells were centrifuged, suspended in PBS(−), and dispensed into 5 wells of a 96-well plate at the density of 5×10^3 cells/well. The cells were subjected to a luciferase assay (“Cell” ATP Assay reagent, TOYO B-Net CO., LTD.). The fluorescence intensities were measured as relative intracellular ATP concentrations using a luminometer.

[5] = system: rabbit corneal endothelial cells; assay: Rabbit corneas preserved in Optisol-GS: corneal endothelia by immunofluorescence staining of Na+/K+ ATPase; conditions: Optisol-GS at 4° C., from week 1; KUS121 50 μM, KUS187 20 μM; FIG. 11
Protocol: as §1
The tissue sections were fluorescently stained with anti-Na+/K+ ATPase antibody, the corneal endothelia around the centers of the corneas were observed by indirect immunofluorescence microscopy, and the images were compared over time among the preservation conditions (FIG. 11).

[6] = system: immortalized human corneal endothelial cells (iHCECs); assay: Western blot analysis of cleaved caspase 3 and PARP in thapsigargin-treated immortalized human corneal endothelial cells; assay type: cell-based; conditions: 10 μM thapsigargin for 8 hours, compound 10, 25, 50 or 100 μM, FIG. 5
Protocol: The medium was changed to the medium containing 10 μM thapsigargin (WAKO, 209-17281) and KUS121 (10 μM, 25 μM, 50 μM, or 100 μM), and the cells were cultured for 8 hours. Medium: DMEM+10% FBS+1% P/S
After the observation of the morphology, western blot analysis was performed by the following procedures.
The media were collected from each well on ice, the cells were washed twice with 1×PBS(−), and the washings were collected. In order to collect suspended cells and dead cells, the collected media and washings were centrifuged at 4° C., 800 g, for 12 minutes, the supernatants were discarded and the pellets were obtained. Protein extraction buffers (RIPA; 50 mM Tris-HCl (pH 7.4), 150 mM NaCl, 1 mM EDTA, 0.1% SDS, 0.5% DOC, 1% NP-40) were added to the washed cells on ice. The cells were suspended together with the pellets of the suspended cells and dead cells. […]
The protein extracts (7 μg each) were separated by SDS-PAGE and transferred to a nitrocellulose membrane. […] The signals were detected by Chemi Lumi ONE Ultra (NACALAI TESQUE, INC., 11644-40). The intensities of the detected bands were analyzed by luminescent image analyzer LAS-4000 mini (Fujifilm Corporation) and ImageQuant™ software (GE Healthcare).

[7] = system: immortalized human corneal endothelial cells (iHCECs); assay: Cell morphology and apoptosis of thapsigargin-treated immortalized human corneal endothelial cells by phase-contrast microscopy; assay type: cell-based; conditions: 10 μM thapsigargin for 8 hours, compound 10, 25, 50 or 100 μM with 24 hours pretreatment, FIG. 4
Protocol: Corneas for research were imported from SightLife™ (Seattle, Wash.). The cornea endothelial cells were stripped from the corneas with Descemet's membranes and immersed in a corneal preservation solution (Optisol-GS, Bausch & Lomb Incorporated). The cornea endothelial cells were treated with collagenase and collected. The cells were cultured in a conditioned medium which was prepared by culturing 3T3 cells in OptiMEM (Gibco, 3195070) with 10% fetal bovine serum (FBS) for 24 hours and then adding 10 μM SB203580 (Funakoshi, 13067) and 1 μM SB431542 (Wako, 192-16541) to the culture medium.
The corneal endothelial cells were immortalized by the following procedures. SV40 large T antigen and hTERT genes were amplified by PCR, and introduced into a lentiviral vector (pLenti6.3-V5-TOPO; Life Technologies Inc.). The lentiviral vector and three helper plasmids (pLP1, pLP2, pLP/VSVG; Life Technologies Inc.) were transfected into 293T cells (RCB2202; Riken Bioresource Center, Ibaraki, Japan) with a transfection reagent (Fugene HD; Promega Corp., Madison, Wis.). The culture supernatant containing the virus was collected 48 hours after the transfection and added to the culture medium of the cornea endothelial cells with 5 μg/ml of Polybrene, thereby the SV40 large T antigen and hTERT genes were introduced into the cells. […]

[8] = system: rabbit corneal endothelial cells; assay: Cell morphology (phase-contrast) of cultured rabbit corneal endothelial cells under antimycin, oligomycin or glucose deprivation; assay type: cell-based; conditions: compound 50 μM
Protocol: as §2
After the addition of the agents, sequential phase-contrast images of the cultured corneal endothelial cells were obtained.

| Compound | swelling of corneal endothelial cells during preservation (rabbit corneas [1]) | swelling of corneal stroma during preservation (rabbit corneas [1]) | corneal epitheliums and cornea thicknesses versus control group (rabbit corneas [1]) | swelling of the corneal stroma and the corneal endothelial cells (electron microscopy) (rabbit corneas [2]) | vacuolization of the corneal epithelial cells and loss of microvilli (rabbit corneas [2]) | TUNEL-positive cells among corneal epithelial cells versus control group [3] | decrease of intracellular ATP concentration in the absence of glucose ([4]; absence of glucose for 96 hours) | decrease of intracellular ATP concentration caused by antimycin ([4]; antimycin 20 μM for 27 hours) | decrease of intracellular ATP concentration caused by oligomycin ([4]; oligomycin 10 μM for 27 hours) | corneal endothelial cells (Na+/K+ ATPase staining) versus control group [5] | band of cleaved caspase 3 (about 17 kDa) induced by thapsigargin [6] | deformation of the cells (cell damage) caused by thapsigargin [7] | death of corneal endothelial cells caused by antimycin ([8]; antimycin 20 μM, 28 hours after addition of the agents, FIG. 1) | death of corneal endothelial cells caused by glucose deprivation ([8]; cultured without glucose, 96 hours, FIG. 2) | death of corneal endothelial cells caused by oligomycin ([8]; oligomycin 10 μM, 28 hours after addition of the agents, FIG. 1) |
| --- | --- | --- | --- | --- | --- | --- | --- | --- | --- | --- | --- | --- | --- | --- | --- |
| Cc1cc(F)ccc1-c1ccc(N=Nc2cc(S(=O)(=O)[O-])c3ccccc3c2N)cn1.[Na+] [KUS121, 4-amino-3-[6-(4-fluoro-2-methylphenyl)pyridine-3-ylazo]naphthalene-1-sulfonic acid sodium salt] | the cell swelling was suppressed until week 2 | the corneal stroma swelling was kept mild until week 4 | maintained better | observed in the control, but not in the corneas preserved in a solution containing KUS121 | observed in the control, but not in the corneas preserved in a solution containing KUS121 | fewer through the test period than in the control group | the decrease was suppressed | the decrease was suppressed | the decrease was suppressed | maintained better | hardly detected | the deformation was suppressed | the cell death was suppressed | the cell death was suppressed | the cell death was suppressed |
| CCCCOc1c(C=O)cc(C)cc1-c1ccc(N=Nc2cc(S(=O)(=O)[O-])c3ccccc3c2N)cn1.[Na+] [KUS187, 4-amino-3-[6-(3-formyl-2-butoxy-5-methylphenyl)pyridine-3-ylazo]naphthalene-1-sulfonic acid sodium salt] | the cell swelling was suppressed until week 2 | the corneal stroma swelling was kept mild until week 4 | maintained better |  |  | fewer through the test period than in the control group |  |  |  | maintained better |  |  |  |  |  |
